Measurements from patent US20240228491A1, “METHIONINE ADENOSYLTRANSFERASE INHIBITOR, PREPARATION METHOD THEREFOR AND APPLICATION THEREOF” (SCINNOHUB PHARMACEUTICAL CO., LTD., priority 2021, published 2024).

Key:
[1] = target: MAT2a (Homo sapiens (Human), UniProt P31153); experiment: MAT2a enzymatic activity test (colorimetric assay); format: biochemical; conditions: OD620, 150 min reaction, read-out: IC50 against MAT2a
Protocol: The Colorimetric assay method was used to detect the IC50 value of the tested compounds on MAT2a.
The specific steps were as follows: The compounds having the test starling concentration of 1 μM or 10 μM were diluted into 10 concentration points in a 3-fold gradient. 250 nL of the solutions of the compounds to be tested with 10 different concentrations were taken and added into a 384 well plate for later use. 20 μg/mL of MAT2a enzyme solution was prepared with Assay buffer (50 mM Tris, 50 mM KCl, 10 mM MgCl2, 0.05% polyoxyethylene lauryl ether, pH 8.0). 15 μL of the MAT2a enzyme solution at 20 μg/mL was add into the wells of the compounds to be tested at different concentrations; and 15 μL of Assay buffer was added into the negative control well. An incubation was carried out for 15 minutes after shaking for mixing well. A mixed substrate solution (comprising 400 μM ATP and 600 μM L-Methionine) was prepared with Assay buffer. 10 μL of the mixed substrate solution was added to the positive control well, the compound to be tested well, and the negative control well, respectively, and the reaction began, for a reaction time of 150 min. Then, 50 μL of the reaction stop solution (BIOMOL Green™ Reagent Enzo lifesciences, Cargo No. BML-AK111-1000) was added to stop the reaction, followed by being centrifuged at 1000 rpm for 60 s and then being incubated for 15 min. OD620 was read and data were processed.
By using the log value of the concentration as the X-axis and the inhibition % as the Y-axis, the IC50 value of each compound against enzyme activity was obtained through employing the log(inhibitor) vs. response-Variable slope fitting dose-effect curve of the analysis software GraphPad Prism 5.

[2] = tested on: HCT116 MTAP-/- cells; experiment: Activity test of HCT116 MTAP gene homozygous deletion cells (CellTiter-Glo); format: cell-based; conditions: Homo sapiens, HCT-116, 120 h incubation, read-out: HCT116 MTAP-/- Cell IC50
Protocol: On day 1, cell seeding: after digestion of the cells with trypsin, the cells were resuspended to the desired density with the complete medium (RPMI-1640 supplemented with 10% FBS; the brand of FBS is EXCELL, Cat. No. FND500; the brand of RPMI-1640 is ATCC, Cat. No. 30-2001), mixed evenly, and added into the 96-well plate at 100 μL/well with a cell density of 1000-3000 cells per well. The plate was put back to the incubator for the adherent growth of cells. On day 2, the addition of the compounds to be tested: before the addition of the compounds, the cells were starved with serum-free medium for 4 h, then the complete medium containing the corresponding concentration of compounds was added thereto, and the cells were incubated at 37° C., 5% CO2 for 120 h. On day 7, the cell culture plates were taken out from incubator and equilibrated to room temperature. 50 μL of CellTiter-Glo (Promega Company, Cat. No. G7571) reagent was added per well, and the cells were fully lysed by shaking at room temperature for 2 min, and then incubated for another 60 min to detect the fluorescence intensity. Calculation formula:
% Inhibition=100−(signal of the well with the compound to be tested−signal of the well with only medium and free of cells)/(signal of the well with cells but without addition of the compound−signal of the well with only medium and free of cells)×100.
The fitting dose-effect curve of the analysis software GraphPad Prism 5 was used to give IC50 values of the individual compounds against cellular activity.

MAT2a, sequence (P31153 whole entry): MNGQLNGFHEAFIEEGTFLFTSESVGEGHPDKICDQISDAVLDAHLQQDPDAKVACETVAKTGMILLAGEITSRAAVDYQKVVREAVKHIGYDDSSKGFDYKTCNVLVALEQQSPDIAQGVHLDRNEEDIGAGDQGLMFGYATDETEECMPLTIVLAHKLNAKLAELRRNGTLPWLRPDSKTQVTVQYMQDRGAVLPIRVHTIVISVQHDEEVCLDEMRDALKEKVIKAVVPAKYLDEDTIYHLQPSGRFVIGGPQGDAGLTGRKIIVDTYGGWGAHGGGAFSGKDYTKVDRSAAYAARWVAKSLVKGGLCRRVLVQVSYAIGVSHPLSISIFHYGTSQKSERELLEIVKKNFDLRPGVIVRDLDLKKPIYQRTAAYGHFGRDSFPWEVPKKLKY

With `CNc1c(-c2nccs2)c(=O)n(-c2ccccc2)c2nc(C(F)(F)F)ccc12` [Example 2, 4-(methylamino)-1-phenyl-3-(thiazol-2-yl)-7-(trifluoromethyl)-1,8-naphthyridin-2(1H)-one] the IC50 [1] was 26.1 nM.
Work on `CNc1c(-c2nnco2)c(=O)n(-c2ccccc2)c2nc(C(F)(F)F)ccc12` [Example 6, 4-(methylamino)-3-(1,3,4-oxadiazol-2-yl)-1-phenyl-7-(trifluoromethyl)-1,8-naphthyridin-2(1H)-one] yielded an IC50 [1] of 40.5 nM and an IC50 [2] of 494 nM.
Molecule `CNc1c(-c2ncco2)c(=O)n(-c2ccccc2)c2nc(C(F)(F)F)ccc12` [Example 7, 4-(methylamino)-3-(oxazol-2-yl)-1-phenyl-7-(trifluoromethyl)-1,8-naphthyridin-2(1H)-one] has an IC50 [1] of 37.9 nM and an IC50 [2] of 800 nM.
Work on `CNc1c(-c2ncc[nH]2)c(=O)n(-c2ccccc2)c2nc(C(F)(F)F)ccc12` [Example 8, 3-(1H-imidazol-2-yl)-4-(methylamino)-1-phenyl-7-(trifluoromethyl)-1,8-naphthyridin-2(1H)-one] yielded an IC50 [1] of 8.7 nM.
`CNc1c(-c2ccoc2)c(=O)n(-c2ccccc2)c2nc(C(F)(F)F)ccc12` [Example 9] gave an IC50 [1] of 21.4 nM.
For `CNc1c(-c2cccs2)c(=O)n(-c2ccccc2)c2nc(C(F)(F)F)ccc12` [Example 10], the IC50 [1] was 20.9 nM.
With `CNc1c(-c2ccco2)c(=O)n(-c2ccccc2)c2nc(C(F)(F)F)ccc12` [Example 11] the IC50 [1] was 21.4 nM.
`CNc1c(-c2cncs2)c(=O)n(-c2ccc(Cl)cc2)c2nc(C(F)(F)F)ccc12` [Example 12] showed an IC50 [1] of 25.8 nM.
For `CNc1c(-c2ccccc2)c(=O)n(-c2ccccc2)c2nc(C(F)(F)F)ccc12` [Example 13], the IC50 [1] was 32 nM and the IC50 [2] was 638 nM.
With `Cc1ccc(-c2c(N)c3ccc(C(F)(F)F)nc3n(-c3ccc(Cl)cc3)c2=O)o1` [Example 14] the IC50 [1] was 22.9 nM.
`Cc1cc(-c2c(N)c3ccc(C(F)(F)F)nc3n(-c3ccc(Cl)cc3)c2=O)on1` [Example 16] was tested, and the IC50 [1] was 41.9 nM.
`Nc1c(-c2ccc3cccnc3c2)c(=O)n(-c2ccc(Cl)cc2)c2nc(C(F)(F)F)ccc12` [Example 18] gave an IC50 [1] of 51.4 nM.
In the case of `Cn1cccc1-c1c(N)c2ccc(C(F)(F)F)nc2n(-c2ccc(Cl)cc2)c1=O` [Example 28], the IC50 [1] is reported as 25.3 nM.
Molecule `CNc1c(-c2cncs2)c(=O)n(-c2ccccc2)c2nc(C(F)(F)F)ccc12` [Example 29] has an IC50 [1] of 25.2 nM and an IC50 [2] of 427 nM.
`Nc1c(-c2ccc3nncn3c2)c(=O)n(-c2ccc(Cl)cc2)c2nc(C(F)(F)F)ccc12` [Example 32] was tested, and the IC50 [1] was 14.9 nM.
With `Nc1c(-c2cncs2)c(=O)n(-c2ccc(Cl)cc2)c2nc(C(F)(F)F)ccc12` [Example 33] the IC50 [1] was 20.2 nM.
Work on `Nc1c(-n2ccnc2)c(=O)n(-c2ccc(Cl)cc2)c2nc(C(F)(F)F)ccc12` [Example 35] yielded an IC50 [1] of 14.9 nM.
`Cn1c(N)nc2ccc(-c3c(N)c4ccc(C(F)(F)F)nc4n(-c4ccc(Cl)cc4)c3=O)cc21` [Example 37] was tested, and the IC50 [1] was 20.2 nM.
`N#Cc1ccc(-c2c(N)c3ccc(C(F)(F)F)nc3n(-c3ccc(Cl)cc3)c2=O)cc1` [Example 40] was tested, and the IC50 [1] was 26.3 nM.
In the case of `Nc1c(-c2ccc3[nH]cnc3c2)c(=O)n(-c2ccc(Cl)cc2)c2nc(C(F)(F)F)ccc12` [Example 50], the IC50 [1] is reported as 17.2 nM.
Molecule `CS(=O)(=O)CCn1cc2cc(-c3c(N)c4ccc(C(F)(F)F)nc4n(-c4ccc(Cl)cc4)c3=O)ccc2n1` [Example 51] has an IC50 [1] of 16.2 nM.
With `Nc1c(-c2ccc(=O)n(CC(F)(F)F)c2)c(=O)n(-c2ccc(Cl)cc2)c2nc(C(F)(F)F)ccc12` [Example 57] the IC50 [1] was 17.1 nM.
With `Nc1c(-c2ccc3ccccc3c2)c(=O)n(-c2ccc(Cl)cc2)c2nc(C(F)(F)F)ccc12` [Example 58] the IC50 [1] was 17.4 nM.
Molecule `Nc1c(-c2cc3nccnc3cn2)c(=O)n(-c2ccc(Cl)cc2)c2nc(C(F)(F)F)ccc12` [Example 59] has an IC50 [1] of 25.4 nM.
`Nc1c(-c2ccn3ncnc3c2)c(=O)n(-c2ccc(Cl)cc2)c2nc(C(F)(F)F)ccc12` [Example 60] showed an IC50 [1] of 17 nM.
`COc1ccc(-c2c(N)c3ccc(C(F)(F)F)nc3n(-c3ccc(Cl)cc3)c2=O)nc1` [Example 61] was tested, and the IC50 [1] was 17 nM.
With `Nc1c(-c2ccc3nn[nH]c3c2)c(=O)n(-c2ccc(Cl)cc2)c2nc(C(F)(F)F)ccc12` [Example 62, 4-amino-3-(1H-benzo[d][1,2,3]triazol-6-yl)-1-(4-chlorophenyl)-7-(trifluoromethyl)-1,8-naphthyridin-2(1H)-one] the IC50 [1] was 16.1 nM.
In the case of `Cn1nnc2ccc(-c3c(N)c4ccc(C(F)(F)F)nc4n(-c4ccc(Cl)cc4)c3=O)cc21` [Example 63], the IC50 [1] is reported as 17.8 nM and the IC50 [2] is reported as 21.5 nM.
`Cn1nc2ccc(-c3c(N)c4ccc(C(F)(F)F)nc4n(-c4ccc(Cl)cc4)c3=O)cc2n1` [Example 64] gave an IC50 [1] of 15.4 nM and an IC50 [2] of 10.7 nM.
Work on `Nc1c(-c2ccccc2)c(=O)n(-c2ccc(Cl)cc2)c2nc(C(F)(F)F)ccc12` [Example 65] yielded an IC50 [1] of 15.2 nM.
`Cn1ncc2cc(-c3c(N)c4ccc(C(F)(F)F)nc4n(-c4ccc(Cl)cc4)c3=O)ccc21` [Example 66] showed an IC50 [1] of 16 nM.
With `Nc1c(-c2ccc3cncnc3c2)c(=O)n(-c2ccc(Cl)cc2)c2nc(C(F)(F)F)ccc12` [Example 70] the IC50 [1] was 30.5 nM.
`Nc1c(-c2ccn3cncc3c2)c(=O)n(-c2ccc(Cl)cc2)c2nc(C(F)(F)F)ccc12` [Example 71] showed an IC50 [1] of 18.5 nM.
`CN(C)CCn1cc2cc(-c3c(N)c4ccc(C(F)(F)F)nc4n(-c4ccc(Cl)cc4)c3=O)ccc2n1` [Example 72] showed an IC50 [1] of 16.5 nM.
`CN(C)CCn1ncc2cc(-c3c(N)c4ccc(C(F)(F)F)nc4n(-c4ccc(Cl)cc4)c3=O)ccc21` [Example 73] was tested, and the IC50 [1] was 18.8 nM.
Work on `Cn1cc(-c2c(N)c3ccc(C(F)(F)F)nc3n(-c3ccc(Cl)c(F)c3)c2=O)ccc1=O` [Example 74] yielded an IC50 [1] of 16.4 nM.
For `Cc1cc(-c2c(N)c3ccc(C(F)(F)F)nc3n(-c3ccc(Cl)cc3)c2=O)ccn1` [Example 75], the IC50 [1] was 13.8 nM.
`N#Cc1cc(-c2c(N)c3ccc(C(F)(F)F)nc3n(-c3ccc(Cl)cc3)c2=O)ccn1` [Example 76] gave an IC50 [1] of 16.3 nM.
In the case of `Nc1c(-c2ccnc(C(F)(F)F)c2)c(=O)n(-c2ccc(Cl)cc2)c2nc(C(F)(F)F)ccc12` [Example 77], the IC50 [1] is reported as 13.9 nM.
Molecule `Cn1cc(-c2c(N)c3ccc(C(F)(F)F)nc3n(-c3ccc(Cl)cc3F)c2=O)ccc1=O` [Example 78] has an IC50 [1] of 14 nM.
`COc1ccc(-c2c(N)c3ccc(C(F)(F)F)nc3n(-c3ccc(Br)cc3)c2=O)cc1` [Example 79, 4-amino-1-(4-bromophenyl)-3-(4-methoxyphenyl)-7-(trifluoromethyl)-1,8-naphthyridin-2(1H)-one] showed an IC50 [1] of 18 nM and an IC50 [2] of 10.9 nM.
`Cn1cnc2ccc(-c3c(N)c4ccc(C(F)(F)F)nc4n(-c4ccc(Br)cc4)c3=O)cc21` [Example 80] was tested, and the IC50 [1] was 15.5 nM and the IC50 [2] was 13.1 nM.
`Cc1ccc(-n2c(=O)c(-n3cccn3)c(N)c3ccc(C(F)(F)F)nc32)cc1` [Example 81] showed an IC50 [1] of 17 nM.
In the case of `Cc1ccc(-n2c(=O)c(-n3cncn3)c(N)c3ccc(C(F)(F)F)nc32)cc1` [Example 82], the IC50 [1] is reported as 16 nM.
`Nc1c(-c2ccc(F)cc2)c(=O)n(-c2ccc(Br)cc2)c2nc(C(F)(F)F)ccc12` [Example 84] gave an IC50 [1] of 28.2 nM.
`COc1ccc(-c2c(N)c3ccc(C(F)(F)F)nc3n(-c3ccc(Br)cc3)c2=O)nc1` [Example 85] gave an IC50 [1] of 15.2 nM.
`Nc1c(-c2ccc3c(c2)OCO3)c(=O)n(-c2ccc(Br)cc2)c2nc(C(F)(F)F)ccc12` [Example 86] showed an IC50 [1] of 15.9 nM.
With `Cc1ccc(-n2c(=O)c(-c3ccc4c(c3)OCCO4)c(N)c3ccc(C(F)(F)F)nc32)cc1` [Example 88] the IC50 [1] was 16 nM.
`Cc1ccc(-n2c(=O)c(-c3ccc4nn(C)cc4c3)c(N)c3ccc(C(F)(F)F)nc32)cc1` [Example 89] was tested, and the IC50 [1] was 16.5 nM.
Work on `Cc1ccc(-n2c(=O)c(-c3ccn4ncnc4c3)c(N)c3ccc(C(F)(F)F)nc32)cc1` [Example 90] yielded an IC50 [1] of 16.9 nM.
`Cc1ccc(-n2c(=O)c(-c3ccnc(C)c3)c(N)c3ccc(C(F)(F)F)nc32)cc1` [Example 91] gave an IC50 [1] of 18 nM.
For `Cn1cc2cc(-c3c(N)c4ccc(C(F)(F)F)nc4n(-c4ccc(Br)cc4)c3=O)ccc2n1` [Example 92], the IC50 [1] was 17.4 nM.
`COc1ccc(-c2c(N)c3ccc(C(F)(F)F)nc3n(-c3ccc(Br)cc3)c2=O)cn1` [Example 93] was tested, and the IC50 [1] was 16.3 nM.
